Experimental data reported in US20250382305A1 (PTC THERAPEUTICS, INC., priority 2022, published 2025).

Columns and labels:
[1] = system: ATXN3 pre-mRNA; assay: RT-qPCR Assay to Quantify Exon 4 Skipping in ATXN3 pre-mRNA in Cells; type: cell-based; settings: percent exon 4 skipping in ATXN3 pre-mRNA, RT-qPCR of cell lysates; average IC50
Summary of the method: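 Cells plated at 10,000/well onto a 7-point, 3.16-fold DMSO dilution series (duplicates), incubated 24 h at 37 °C, then lysed. Exon 4 skipping measured by one-step RT-qPCR (48 °C RT, 40 cycles); IC50 interpolated from dose-response fit of percent skipping.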

[2] = system: Total ATXN3 (tATXN3) protein; assay: Endogenous Total ATXN3 (tATXN3) Protein Assay (MSD immunoassay of cell lysates); type: cell-based; settings: average IC50, total ATXN3 protein in cell lysate after 48 h with compound (Table 1)
Summary of the method: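 Cells in DMEM/10% FBS were plated at 10,000 per well onto 7-point, 3.16-fold compound dilutions in duplicate for 48 h at 37° C, then lysed. Total ATXN3 in lysates was measured by MSD sandwich immunoassay: mouse anti-ATXN3 capture, rabbit anti-ATXN3 detection, SULFO-TAG anti-rabbit. Average IC50 was reported in star bins.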

Row | SMILES | IC50 [1] [nM] | IC50 [2] [nM]
1 | N[C@@H]1CC=CC[C@H]1c1sc2c(NCc3cccs3)cc(Cl)nc2c1Cl.N[C@H]1CC=CC[C@@H]1c1sc2c(NCc3cccs3)cc(Cl)nc2c1Cl (mixture of isomers) [Compound 431, 2-((1R,6R)-6-aminocyclohex-3-en-1-yl)-3,5-dichloro-N-(thiophen-2-ylmethyl)thieno[3,2-b]pyridin-7-amine and 2-((1S,6S)-6-aminocyclohex-3-en-1-yl)-3,5-dichloro-N-(thiophen-2-ylmethyl)thieno[3,2-b]pyridin-7-amine] | ≤ 30 | ≤ 30
2 | N[C@H]1CCCC[C@@H]1c1sc2c(NCc3cccs3)cc(Cl)nc2c1Cl (single isomer, unassigned) [Compound 34, 2-((1S,2S)-2-aminocyclohexyl)-3,5-dichloro-N-(thiophen-2-ylmethyl)thieno[3,2-b]pyridin-7-amine or 2-((1R,2R)-2-aminocyclohexyl)-3,5-dichloro-N-(thiophen-2-ylmethyl)thieno[3,2-b]pyridine-7-amine] | ≤ 30 | ≤ 30
3 | N[C@@H]1CCCC[C@H]1c1sc2c(NCc3cccs3)cc(Cl)nc2c1Cl (single isomer, unassigned) [Compound 36, 2-((1R,2R)-2-aminocyclohexyl)-3,5-dichloro-N-(thiophen-2-ylmethyl)thieno[3,2-b]pyridin-7-amine or 2-((1S,2S)-2-aminocyclohexyl)-3,5-dichloro-N-(thiophen-2-ylmethyl)thieno[3,2-b]pyridine-7-amine] | > 1000 | > 1000
4 | CCc1c([C@@H]2CCCC[C@H]2N)sc2c(NCc3cccs3)cc(Cl)nc12 (single isomer, unassigned) [Compound 39, 2-((1R,2R)-2-aminocyclohexyl)-5-chloro-3-ethyl-N-(thiophen-2-ylmethyl)thieno[3,2-b]pyridin-7-amine or 2-((1S,2S)-2-aminocyclohexyl)-5-chloro-3-ethyl-N-(thiophen-2-ylmethyl)thieno[3,2-b]pyridine-7-amine] | > 1000 | > 1000
5 | CCc1c([C@H]2CCCC[C@@H]2N)sc2c(NCc3cccs3)cc(Cl)nc12 (single isomer, unassigned) [Compound 40, 2-((1S,2S)-2-aminocyclohexyl)-5-chloro-3-ethyl-N-(thiophen-2-ylmethyl)thieno[3,2-b]pyridin-7-amine or 2-((1R,2R)-2-aminocyclohexyl)-5-chloro-3-ethyl-N-(thiophen-2-ylmethyl)thieno[3,2-b]pyridin-7-amine] | 30 to 300 | 30 to 300
6 | N[C@@H]1CCCO[C@H]1c1sc2c(NCc3ccco3)nc(Cl)nc2c1Br (single isomer, unassigned) [Compound 42, 6-((2R,3R)-3-aminotetrahydro-2H-pyran-2-yl)-7-bromo-2-chloro-N-(furan-2-ylmethyl)thieno[3,2-d]pyrimidin-4-amine or 6-((2S,3S)-3-aminotetrahydro-2H-pyran-2-yl)-7-bromo-2-chloro-N-(furan-2-ylmethyl)thieno[3,2-d]pyrimidin-4-amine] | 300 to 1000 | 300 to 1000
7 | N[C@H]1CCC[C@@H]1c1sc2c(NCc3cccs3)cc(Cl)nc2c1Cl [Compound 1, 2-((1S,2S)-2-aminocyclopentyl)-3,5-dichloro-N-(thiophen-2-ylmethyl)thieno[3,2-b]pyridin-7-amine] | ≤ 30 | ≤ 30
8 | N[C@@H]1CCC[C@H]1c1sc2c(NCc3cccs3)cc(Cl)nc2c1Cl [Compound 2, 2-((1R,2R)-2-aminocyclopentyl)-3,5-dichloro-N-(thiophen-2-ylmethyl)thieno[3,2-b]pyridin-7-amine] | > 1000 | > 1000
9 | N[C@@H]1CCC[C@@H]1c1sc2c(NCc3cccs3)cc(Cl)nc2c1Cl [Compound 3, 2-((1S,2R)-2-aminocyclopentyl)-3,5-dichloro-N-(thiophen-2-ylmethyl)thieno[3,2-b]pyridin-7-amine] | > 1000 | > 1000
10 | N[C@H]1CCC[C@H]1c1sc2c(NCc3cccs3)cc(Cl)nc2c1Cl [Compound 4, 2-((1R,2S)-2-aminocyclopentyl)-3,5-dichloro-N-(thiophen-2-ylmethyl)thieno[3,2-b]pyridin-7-amine] | 30 to 300 | 30 to 300
11 | Cc1c([C@@H]2CCC[C@H]2N)sc2c(NCc3cccs3)cc(Cl)nc12 [Compound 5, 2-((1R,2R)-2-aminocyclopentyl)-5-chloro-3-methyl-N-(thiophen-2-ylmethyl)thieno[3,2-b]pyridin-7-amine] | > 1000 | > 1000
12 | Cc1c([C@H]2CCC[C@@H]2N)sc2c(NCc3cccs3)cc(Cl)nc12 [Compound 6, 2-((1S,2S)-2-aminocyclopentyl)-5-chloro-3-methyl-N-(thiophen-2-ylmethyl)thieno[3,2-b]pyridin-7-amine] | 30 to 300 | 30 to 300
13 | N[C@@H]1CCC[C@H]1c1sc2c(NCc3cccs3)cc(Cl)nc2c1Br [Compound 7, 2-((1R,2R)-2-aminocyclopentyl)-3-bromo-5-chloro-N-(thiophen-2-ylmethyl)thieno[3,2-b]pyridin-7-amine] | 300 to 1000 | 300 to 1000
14 | N[C@H]1CCC[C@@H]1c1sc2c(NCc3cccs3)cc(Cl)nc2c1Br [Compound 8, 2-((1S,2S)-2-aminocyclopentyl)-3-bromo-5-chloro-N-(thiophen-2-ylmethyl)thieno[3,2-b]pyridin-7-amine] | ≤ 30 | ≤ 30

The remaining lines, values ahead:

Row | IC50 [1] [nM] | IC50 [2] [nM] | SMILES
15 | 300 to 1000 | 300 to 1000 | N[C@@H]1CC=CC[C@H]1c1sc2c(NCc3cccs3)nc(Cl)nc2c1Cl.N[C@H]1CC=CC[C@@H]1c1sc2c(NCc3cccs3)nc(Cl)nc2c1Cl (mixture of isomers) [Compound 397, 6-((1R,6R)-6-aminocyclohex-3-en-1-yl)-2,7-dichloro-N-(thiophen-2-ylmethyl)thieno[3,2-d]pyrimidin-4-amine and 6-((1S,6S)-6-aminocyclohex-3-en-1-yl)-2,7-dichloro-N-(thiophen-2-ylmethyl)thieno[3,2-d]pyrimidin-4-amine]
16 | 30 to 300 | 30 to 300 | N[C@@H]1CCCC[C@H]1c1c(Cl)c2nc(Cl)nc(NCc3ccccc3)c2n1C(F)F.N[C@H]1CCCC[C@@H]1c1c(Cl)c2nc(Cl)nc(NCc3ccccc3)c2n1C(F)F (mixture of isomers) [Compound 418, 6-((1S,2S)-2-aminocyclohexyl)-N-benzyl-2,7-dichloro-5-(difluoromethyl)-5H-pyrrolo[3,2-d]pyrimidin-4-amine and 6-((1R,2R)-2-aminocyclohexyl)-N-benzyl-2,7-dichloro-5-(difluoromethyl)-5H-pyrrolo[3,2-d]pyrimidin-4-amine]
17 | > 1000 | > 1000 | N[C@H]1CCCN(c2ccccc2)[C@H]1c1sc2c(NCc3cccs3)cc(Cl)nc2c1Br (racemic) [Compound 125, 2-((2R,3S)-3-amino-1-phenylpiperidin-2-yl)-3-bromo-5-chloro-N-(thiophen-2-ylmethyl)thieno[3,2-b]pyridin-7-amine and 2-((2S,3R)-3-amino-1-phenylpiperidin-2-yl)-3-bromo-5-chloro-N-(thiophen-2-ylmethyl)thieno[3,2-b]pyridin-7-amine]
18 | ≤ 30 | ≤ 30 | N[C@@H]1CC=CC[C@@H]1c1sc2c(NCc3cccs3)cc(Cl)nc2c1Br.N[C@H]1CC=CC[C@H]1c1sc2c(NCc3cccs3)cc(Cl)nc2c1Br (racemic) [Compound 144, 2-((1S,6RS)-6-aminocyclohex-3-en-1-yl)-3-bromo-5-chloro-N-(thiophen-2-ylmethyl)thieno[3,2-b]pyridin-7-amine and 2-((1R,6SR)-6-aminocyclohex-3-en-1-yl)-3-bromo-5-chloro-N-(thiophen-2-ylmethyl)thieno[3,2-b]pyridin-7-amine]
19 | > 1000 | > 1000 | Cc1c([C@@H]2OCCC[C@H]2N)sc2c(NCc3cccs3)cc(Cl)nc12 (single isomer, unassigned) [Compound 44, 2-((2R,3R)-3-aminotetrahydro-2H-pyran-2-yl)-5-chloro-3-methyl-N-(thiophen-2-ylmethyl)thieno[3,2-b]pyridin-7-amine or 2-((2S,3S)-3-aminotetrahydro-2H-pyran-2-yl)-5-chloro-3-methyl-N-(thiophen-2-ylmethyl)thieno[3,2-b]pyridin-7-amine]
20 | ≤ 30 | ≤ 30 | Cc1c([C@@H]2OCCC[C@H]2N)sc2c(NCc3cccs3)cc(Cl)nc12 (single isomer, unassigned) [Compound 45, 2-((2R,3R)-3-aminotetrahydro-2H-pyran-2-yl)-5-chloro-3-methyl-N-(thiophen-2-ylmethyl)thieno[3,2-b]pyridin-7-amine or 2-((2S,3S)-3-aminotetrahydro-2H-pyran-2-yl)-5-chloro-3-methyl-N-(thiophen-2-ylmethyl)thieno[3,2-b]pyridin-7-amine]
21 | > 1000 | > 1000 | CCc1c([C@@H]2CCCCC[C@H]2N)sc2c(NCc3cccs3)cc(Cl)nc12 (single isomer, unassigned) [Compound 86, 2-((1R,2R)-2-aminocycloheptyl)-5-chloro-3-ethyl-N-(thiophen-2-ylmethyl)thieno[3,2-b]pyridin-7-amine or 2-((1S,2S)-2-aminocycloheptyl)-5-chloro-3-ethyl-N-(thiophen-2-ylmethyl)thieno[3,2-b]pyridin-7-amine]
22 | 30 to 300 | 30 to 300 | CCc1c([C@H]2CCCCC[C@@H]2N)sc2c(NCc3cccs3)cc(Cl)nc12 (single isomer, unassigned) [Compound 87, 2-((1S,2S)-2-aminocycloheptyl)-5-chloro-3-ethyl-N-(thiophen-2-ylmethyl)thieno[3,2-b]pyridin-7-amine or 2-((1R,2R)-2-aminocycloheptyl)-5-chloro-3-ethyl-N-(thiophen-2-ylmethyl)thieno[3,2-b]pyridin-7-amine]
